The subject of data set [1] is Endothelial nitric oxide synthase (eNOS). Put plainly: Expression amount of endothelial nitric oxide synthase (eNOS assay kit). It is filed as cell-based, Human. The conditions noted are these: vascular endothelial cells, treatment 10 min (FIG. 3). As to the method:
Sildenafil, arginine, N-acetylcysteine, and S-nitroso-N-acetylpenicillamine (SNAP) are dissolved and diluted in phosphate buffered saline (PBS). […] The solutions are stored at a temperature of 4° C. […] Human umbilical vein endothelial cells (HUVEC) obtained from Bioresource Collection and Research Center (Hsinchu, Taiwan) were cultured in Ham's F-12K (Sigma-Aldrich) with endothelial cell growth supplement (Millipore), heparin (Sigma-Aldrich), 2.2 mg/mL sodium bicarbonate, and 10% FBS (Gibco). HUVEC at passage 5 to 15 were used in all applications. Human pulmonary artery vascular smooth muscle (PAVSM) cells and growth media were obtained from Lonza Inc. (Walkersville, MD., USA). Cells were grown in a 5% CO2 atmosphere at 37° C. For cell treatments, HUVEC and PAVSM cells were grown in confluence respectively on the upper and lower wells of Transwell® units. Culture medium volume in each upper chamber was 1.5 mL, and in each lower chamber was 2.5 mL. […] All supernatants of HUVEC and PAVSM were collected right after the treatments for the NO amount analysis. […] Analysis of Expression Amount of Endothelial Nitric Oxide Synthase Endothelial nitric oxide synthase (eNOS) activity was assessed using the eNOS assay kit (Promega). […] Relative Luminance Unit (RLU) emitted by the product was measured using a microreader.

Data set [2] relates to Human pulmonary artery vascular smooth muscle (PAVSM) cells. Put plainly: cGMP in smooth muscle cells (cGMP immunoassay). The class given is cell-based. The conditions noted are these: for amount of cGMP compared with control group (drug treatment for 0 min): 100 nM sildenafil. As to the method: Sildenafil, arginine, N-acetylcysteine, and S-nitroso-N-acetylpenicillamine (SNAP) are dissolved and diluted in phosphate buffered saline (PBS). […] The solutions are stored at a temperature of 4° C. […] Human umbilical vein endothelial cells (HUVEC) obtained from Bioresource Collection and Research Center (Hsinchu, Taiwan) were cultured in Ham's F-12K (Sigma-Aldrich) with endothelial cell growth supplement (Millipore), heparin (Sigma-Aldrich), 2.2 mg/mL sodium bicarbonate, and 10% FBS (Gibco). HUVEC at passage 5 to 15 were used in all applications. Human pulmonary artery vascular smooth muscle (PAVSM) cells and growth media were obtained from Lonza Inc. (Walkersville, MD., USA). Cells were grown in a 5% CO2 atmosphere at 37° C. For cell treatments, HUVEC and PAVSM cells were grown in confluence respectively on the upper and lower wells of Transwell® units. Culture medium volume in each upper chamber was 1.5 mL, and in each lower chamber was 2.5 mL. […] All supernatants of HUVEC and PAVSM were collected right after the treatments for the NO amount analysis. HUVEC cells and PAVSM cells were rinsed in ice-cold phosphate buffered saline and then solubilized in ice-cold 6% trichloroacetic acid for the protein extraction. Samples were stored at −80° until the assays. Analysis of cGMP in Smooth Muscle Cells […] Nitric Oxide-Cyclic GMP Signaling Pathway as an Illustrative Example and Derivation of the General Case; PLOS COMPUTATIONAL BIOLOGY, DOI:10.1371/journal.pcbi.1004822 Mar. 17, 2016). cGMP formation was measured by immunoassay according to the cGMP Assay (Cayman Chemical Co., Ann Arbor, MI).

The test system of data set [3] is HUVEC. Put plainly: Vascular fibrosis index: lipid peroxidation (malondialdehyde, MDA). The class given is cell-based, Human. As to conditions: vascular endothelial cells, treatment 10 min (FIG. 7). How it is done: (§1) Sildenafil, arginine, N-acetylcysteine, and S-nitroso-N-acetylpenicillamine (SNAP) are dissolved and diluted in phosphate buffered saline (PBS). […] The solutions are stored at a temperature of 4° C.
(§2) Human umbilical vein endothelial cells (HUVEC) obtained from Bioresource Collection and Research Center (Hsinchu, Taiwan) were cultured in Ham's F-12K (Sigma-Aldrich) with endothelial cell growth supplement (Millipore), heparin (Sigma-Aldrich), 2.2 mg/mL sodium bicarbonate, and 10% FBS (Gibco). HUVEC at passage 5 to 15 were used in all applications. Human pulmonary artery vascular smooth muscle (PAVSM) cells and growth media were obtained from Lonza Inc. (Walkersville, MD., USA). Cells were grown in a 5% CO2 atmosphere at 37° C.
For cell treatments, HUVEC and PAVSM cells were grown in confluence respectively on the upper and lower wells of Transwell® units. Culture medium volume in each upper chamber was 1.5 mL, and in each lower chamber was 2.5 mL. […]
Lipid peroxidation in HUVEC protein extracts was quantified measuring the concentration of MDA by a spectrofluorometric assay using an “MDA assay kit” as described by Richard et al., 1992 (Richard et al. 1992). Quantification was achieved by parallel measurements of a standard curve of known MDA concentrations, and results were expressed as level change of the control.

The next data set has as its system erectile dysfunction. The conditions noted are these: sildenafil alone, placebo 25%, cited from earlier work.
Data set [4] concerns Human umbilical vein endothelial cells (HUVEC). Description: Nitric oxide release amount from endothelial cells (NO assay kit). It is filed as cell-based. The conditions noted are these: vascular endothelial cells; for release amount of nitric oxide compared with control group (drug treatment for 0 min): 100 nM sildenafil. How it is done: Sildenafil, arginine, N-acetylcysteine, and S-nitroso-N-acetylpenicillamine (SNAP) are dissolved and diluted in phosphate buffered saline (PBS). […] The solutions are stored at a temperature of 4° C. […] Human umbilical vein endothelial cells (HUVEC) obtained from Bioresource Collection and Research Center (Hsinchu, Taiwan) were cultured in Ham's F-12K (Sigma-Aldrich) with endothelial cell growth supplement (Millipore), heparin (Sigma-Aldrich), 2.2 mg/mL sodium bicarbonate, and 10% FBS (Gibco). HUVEC at passage 5 to 15 were used in all applications. Human pulmonary artery vascular smooth muscle (PAVSM) cells and growth media were obtained from Lonza Inc. (Walkersville, MD., USA). Cells were grown in a 5% CO2 atmosphere at 37° C. For cell treatments, HUVEC and PAVSM cells were grown in confluence respectively on the upper and lower wells of Transwell® units. Culture medium volume in each upper chamber was 1.5 mL, and in each lower chamber was 2.5 mL. […] All supernatants of HUVEC and PAVSM were collected right after the treatments for the NO amount analysis. HUVEC cells and PAVSM cells were rinsed in ice-cold phosphate buffered saline and then solubilized in ice-cold 6% trichloroacetic acid for the protein extraction. Samples were stored at −80° until the assays. Analysis of Nitric Oxide Release Amount from Endothelial Cells The nitric oxide amount was assessed using the NO assay kit (Promega). After treatment, the supernatants of HUVEC were collected for the NO assay reagent kit, and 200 μL per well was applied according to the manufacturer's instructions. Relative Luminance Unit (RLU) emitted by the product was measured using a microreader.

In data set [5] the test system is HUVEC. Description: Quantitative free radical ROS content (Cm-H2DCFDA). The class given is cell-based, Human. As to conditions: vascular endothelial cells, treatment 10 min (FIG. 6). How it is done:
as §1, §2
For cell treatments, HUVEC and PAVSM cells were grown in confluence respectively on the upper and lower wells of Transwell® units. […]
Detection Mode of Quantitative Free Radical ROS Content
ROS detection studies were performed using a Cm-H2DCFDA ROS detection kit (Invitrogen, Grand Island, NY, USA). […] ROS generation was measured every 10 min up to 2 h with a micro-reader at 490 nm excitation, 530 nm emission. […] Samples were then measured immediately using a Promega microreader. ROS levels generated by 2.5×10^4 viable treated cells were expressed as the percentage of ROS produced by an equal number of viable negative control cells.

Data set [6] relates to HUVEC. Description: Vascular permeability analysis: VEGF-A release content. The class given is cell-based, Human. The conditions noted are these: vascular endothelial cells, treatment 10 min (FIG. 8). How it is done:
as §1, §2
For cell treatments, HUVEC and PAVSM cells were grown in confluence respectively on the upper and lower wells of Transwell® units. Culture medium volume in each upper chamber was 1.5 mL, and in each lower chamber was 2.5 mL. Confluent HUVEC cells were treated with regular medium in the presence or absence of S, SS, SN, SSN and SAN for 0, 10, 20, 30 and 60 min. All supernatants of HUVEC and PAVSM were collected right after the treatments for the NO amount analysis. […]
VEGFA amount was assessed using the VEGFA assay kit (Promega). […] Relative Absorbance Unit at 540 nm emitted by the product was measured using a microreader.

The conditions of data set [7]: sildenafil alone, healthy elderly subjects (65 years or older); cited from earlier work.

Read-outs that look alike come from different tables or passages of the source.

Consider 1 compound from US20250134892A1, “COMBINATION OF COMPOUNDS FOR TREATING VASCULAR DISEASES COMPRISING PDE5 INHIBITOR, ARGININE AND N-ACETYLCYSTEINE” (Future Pharmtech Inc., priority 2022, published 2025).

Consider `CCCc1nn(C)c2c(=O)[nH]c(-c3cc(S(=O)(=O)N4CCN(C)CC4)ccc3OCC)nc12` [SILD, sildenafil], for which, in data set [1], the “expression amount of nitric oxide synthase compared with control group (with no drug)” value was “about 2 folds”. In addition, the “amount of cGMP compared with control group (drug treatment for 0 min)” value in data set [2] (treatment 10 min (FIG. 4)) was “about 2.6 folds”; in data set [2] (treatment 20 min (FIG. 4)), about 3 folds; in data set [2] (treatment 30 min (FIG. 4)), about 4.7 folds; in data set [2] (treatment 60 min (FIG. 4)) it was about 5.5 folds. The “amount of cGMP compared with control group (with no drug)” value in data set [2] (10-min treatment (FIG. 5)) was “about 2.6 folds”. The “amount of MDA compared with control group (with no drug treatment)” value with HUVEC [3] was “about 2.8 folds”. Besides, the figures for the “proportion of disease improvement” value in the data set with erectile dysfunction (25 mg), in the data set with erectile dysfunction (50 mg) and with erectile dysfunction (100 mg) were 62%, 74% and 82%, respectively. The “release amount of nitric oxide compared with control group (drug treatment for 0 min)” value in data set [4] (treatment 10 min (FIG. 1)) was “about 1.6 folds”; in data set [4] (treatment 20 min (FIG. 1)) it was “about 2.6 folds”; in data set [4] (treatment 30 min (FIG. 1)), “about 3.1 folds”; in data set [4] (treatment 60 min (FIG. 1)), “about 3.5 folds”. For the same compound, in data set [4] (10-min drug treatment (FIG. 2)), the “release amount of nitric oxide compared with control group (with no drug)” value is reported as “about 1.6 folds”. The “amount of ROS compared with control group (with no drug treatment)” value in the data set on HUVEC [5] is listed as “about 2.8 folds”. Moreover, the “amount of VEGFA compared with control group (with no drug treatment)” value with HUVEC [6] is “about 3.9 folds”. Further, the “clearance rate in elderly subjects” value in data set [7] is on record as “decreased”.
